ChEMBL document CHEMBL1132496, “Combining in vitro and in vivo pharmacokinetic data for prediction of hepatic drug clearance in humans by artificial neural networks and multivariate statistical techniques” (J Med Chem, 1999)

Columns and labels:
[1] = species on record: Homo sapiens; details: hepatocytes
Description: In vitro clearance in human in 1000000 cells

[2] = clinical; details: human, in vivo
Description: In vivo clearance in human

[3] = species on record: Rattus norvegicus; details: hepatocytes
Description: In vitro clearance in rat in 1000000 cells

[4] = in vivo; details: rat
[5] = in vivo; details: dog
[6] = species on record: Canis familiaris; details: dog, hepatocytes
Description: In vitro clearance in dog in 1000000 cells

[7] = clinical; details: human, in vivo; remark: listed apart in the source
Description: In vivo clearance in human.

[8] = in vivo; details: dog; remark: listed apart in the source
Description: In vivo clearance in dog.

[9] = in vivo; details: rat; remark: listed apart in the source
Description: In vivo clearance in rat.

COC(=O)C1=C(C#N)NC(C)=C(C(=O)OC(C)C)C1c1cccc([N+](=O)[O-])c1 (stereo not given) [NILVADIPINE]
clearance [1]: 13.3 µL/min | clearance [2]: 20 mL/min/kg | clearance [3]: 29.7 µL/min | clearance [4]: 94 mL/min/kg | clearance [5]: 15.3 mL/min/kg | clearance [6]: 10.9 µL/min

C/C(=C\c1ccc(OCCN2CCOCC2)cc1)c1ccc2c(c1)C(C)(C)CCC2(C)C [MOFAROTENE]
clearance [7]: 11 mL/min/kg | clearance [1]: 2 µL/min | clearance [8]: 5.8 mL/min/kg | clearance [9]: 16 mL/min/kg | clearance [3]: 2.3 µL/min | clearance [6]: 1 µL/min

Cc1ccc(C(=O)c2cc(O)c(O)c([N+](=O)[O-])c2)cc1 [TOLCAPONE]
clearance [1]: 1.2 µL/min | clearance [2]: 2.7 mL/min/kg | clearance [3]: 2.6 µL/min | clearance [4]: 15 mL/min/kg | clearance [5]: 3.3 mL/min/kg | clearance [6]: 1.4 µL/min

COCC(=O)O[C@]1(CCN(C)CCCc2nc3ccccc3[nH]2)CCc2cc(F)ccc2[C@@H]1C(C)C [MIBEFRADIL]
clearance [7]: 7 mL/min/kg | clearance [1]: 0.9 µL/min | clearance [8]: 36 mL/min/kg | clearance [9]: 94 mL/min/kg | clearance [3]: 5.4 µL/min | clearance [6]: 6.2 µL/min

COc1ccccc1Oc1c(NS(=O)(=O)c2ccc(C(C)(C)C)cc2)nc(-c2ncccn2)nc1OCCO [BOSENTAN]
clearance [7]: 3.7 mL/min/kg | clearance [1]: 0.2 µL/min | clearance [8]: 1.9 mL/min/kg | clearance [9]: 55 mL/min/kg | clearance [3]: 1.3 µL/min | clearance [6]: 0.2 µL/min

Cn1c(=O)c2[nH]cnc2n(C)c1=O.O [THEOPHYLLINE]
clearance [1]: 0.1 µL/min | clearance [2]: 0.6 mL/min/kg | clearance [3]: 0.2 µL/min | clearance [4]: 2.2 mL/min/kg | clearance [5]: 1.5 mL/min/kg | clearance [6]: 0.2 µL/min

Cc1cc(=O)n(-c2ccccc2)n1C [ANTIPYRINE]
clearance [1]: 0.1 µL/min | clearance [2]: 0.5 mL/min/kg | clearance [3]: 0.4 µL/min | clearance [4]: 7 mL/min/kg | clearance [5]: 4.9 mL/min/kg | clearance [6]: 1 µL/min

COc1ccc([C@@H]2Sc3ccccc3N(CCN(C)C)C(=O)[C@@H]2OC(C)=O)cc1 [DILTIAZEM]
clearance [1]: 1.9 µL/min | clearance [8]: 46.1 mL/min/kg | clearance [9]: 87.2 mL/min/kg | clearance [3]: 43.6 µL/min | clearance [6]: 2.7 µL/min

CCOC(=O)C1=C(C)NC(C)=C(C(=O)OC)C1c1cccc([N+](=O)[O-])c1 (stereo not given) [NITRENDIPINE]
clearance [1]: 12 µL/min | clearance [2]: 18.7 mL/min/kg | clearance [3]: 24 µL/min | clearance [4]: 16.5 mL/min/kg | clearance [5]: 21.7 mL/min/kg | clearance [6]: 8.1 µL/min

Cn1c(=O)c2c(ncn2C)n(C)c1=O [CAFFEINE]
clearance [1]: 0.1 µL/min | clearance [2]: 2 mL/min/kg | clearance [3]: 0.6 µL/min | clearance [4]: 13 mL/min/kg | clearance [5]: 2.6 mL/min/kg | clearance [6]: 0.2 µL/min

C=CCN1CC[C@]23c4c5ccc(O)c4O[C@H]2C(=O)CC[C@@]3(O)[C@H]1C5 [NALOXONE]
clearance [1]: 16.7 µL/min | clearance [2]: 25 mL/min/kg | clearance [3]: 54.6 µL/min | clearance [4]: 48.8 mL/min/kg | clearance [5]: 42.5 mL/min/kg | clearance [6]: 32.1 µL/min

O=C1Nc2ccc(Cl)cc2C(c2ccccc2Cl)=NC1O (stereo not given) [LORAZEPAM]
clearance [1]: 0.3 µL/min | clearance [2]: 1.1 mL/min/kg | clearance [3]: 3.8 µL/min | clearance [4]: 27.2 mL/min/kg | clearance [5]: 26.1 mL/min/kg | clearance [6]: 18.1 µL/min

CC(C)(C)S(=O)(=O)C[C@@H](Cc1ccccc1)C(=O)N[C@@H](Cc1cnc[nH]1)C(=O)N[C@@H](CC1CCCCC1)[C@@H](O)[C@@H](O)C1CC1
clearance [1]: 19.5 µL/min | clearance [2]: 19.6 mL/min/kg | clearance [3]: 16.6 µL/min | clearance [4]: 119 mL/min/kg | clearance [5]: 3 mL/min/kg

Cc1ncc2n1-c1ccc(Cl)cc1C(c1ccccc1F)=NC2 [MIDAZOLAM]
clearance [7]: 11 mL/min/kg | clearance [1]: 4.5 µL/min | clearance [9]: 130 mL/min/kg | clearance [3]: 16.7 µL/min
